As a reminder, the IC50 is the midpoint of a concentration-inhibition curve.

Like-named read-outs stand apart in the source and are kept apart here.

Three compounds from paper PMC9972884 (Biochemistry, 2009) can be followed below.

The target of experiment [1] is T1, GST-hPPARα (recombinant human PPARα) (Homo sapiens, UniProt Q07869).
T1 sequence (Q07869 1-468): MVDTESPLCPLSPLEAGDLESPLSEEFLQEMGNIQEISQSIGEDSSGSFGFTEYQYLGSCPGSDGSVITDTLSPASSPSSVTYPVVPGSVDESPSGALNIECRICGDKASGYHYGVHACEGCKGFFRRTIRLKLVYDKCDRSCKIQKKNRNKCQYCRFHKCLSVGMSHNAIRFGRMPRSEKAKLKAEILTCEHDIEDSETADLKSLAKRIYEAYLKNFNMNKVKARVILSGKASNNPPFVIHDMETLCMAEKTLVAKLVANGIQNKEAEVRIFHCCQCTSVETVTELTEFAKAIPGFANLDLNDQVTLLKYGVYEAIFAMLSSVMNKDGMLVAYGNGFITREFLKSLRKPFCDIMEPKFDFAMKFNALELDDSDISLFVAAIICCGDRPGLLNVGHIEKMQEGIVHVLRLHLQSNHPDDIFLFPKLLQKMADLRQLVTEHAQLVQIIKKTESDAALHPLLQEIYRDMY
The experiment is described as follows: Radioligand competition scintillation proximity binding assay, PPARα.

Experiment [2] addresses T2, PPARγ (Homo sapiens, UniProt P37231).
T2 sequence (P37231 1-477 isoform P37231-2): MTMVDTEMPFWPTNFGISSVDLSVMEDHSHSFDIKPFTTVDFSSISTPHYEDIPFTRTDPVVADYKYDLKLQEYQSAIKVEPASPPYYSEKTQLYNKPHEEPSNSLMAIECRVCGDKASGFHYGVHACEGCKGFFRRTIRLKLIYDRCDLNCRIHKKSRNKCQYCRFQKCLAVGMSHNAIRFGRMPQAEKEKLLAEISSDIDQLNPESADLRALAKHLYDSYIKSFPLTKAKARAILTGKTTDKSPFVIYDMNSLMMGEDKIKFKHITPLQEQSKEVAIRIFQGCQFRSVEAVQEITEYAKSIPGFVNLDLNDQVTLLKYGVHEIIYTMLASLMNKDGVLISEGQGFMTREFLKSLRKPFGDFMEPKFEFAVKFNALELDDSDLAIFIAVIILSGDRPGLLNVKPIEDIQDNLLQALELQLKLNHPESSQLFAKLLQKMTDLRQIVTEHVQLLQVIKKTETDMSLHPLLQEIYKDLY
It counts as cell-based. As to conditions: for effect on induction by rosiglitazone (coincubation): 0–5 µM NO2-LA isomer with fixed 0.1 µM rosiglitazone; for mean induction as a percentage of induction by 0.1 µM rosiglitazone (100%): ligands at 5 µM, mean of 6–18 determinations ± SEM; for agonist (full or partial): relative to rosiglitazone, defined as full agonist; for PPARγ activation (in words): concentrations as high as 100 µM.

The target in experiment [3] is T3, GST-hPPARγ (recombinant human PPARγ) (Homo sapiens, UniProt P37231).
T3 sequence (P37231 1-505): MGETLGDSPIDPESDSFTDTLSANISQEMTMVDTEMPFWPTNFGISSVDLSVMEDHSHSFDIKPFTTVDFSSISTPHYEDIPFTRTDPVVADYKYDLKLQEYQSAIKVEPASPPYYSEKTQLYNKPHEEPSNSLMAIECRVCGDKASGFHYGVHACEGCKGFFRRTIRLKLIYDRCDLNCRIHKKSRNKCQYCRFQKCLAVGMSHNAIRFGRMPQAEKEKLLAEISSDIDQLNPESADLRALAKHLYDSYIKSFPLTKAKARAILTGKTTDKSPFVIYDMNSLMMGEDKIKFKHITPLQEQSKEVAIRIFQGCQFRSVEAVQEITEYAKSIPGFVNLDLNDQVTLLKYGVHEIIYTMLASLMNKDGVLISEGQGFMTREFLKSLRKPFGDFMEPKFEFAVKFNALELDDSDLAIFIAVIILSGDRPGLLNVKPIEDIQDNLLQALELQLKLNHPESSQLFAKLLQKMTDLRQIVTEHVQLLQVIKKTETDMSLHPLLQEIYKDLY
The experiment is described as follows: Radioligand competition scintillation proximity binding assay, PPARγ. For orientation: Loss of bound radioactivity is the signal in a displacement assay; it reports binding, not function.

Consider `CCCCC/C=C(\C/C=C\CCCCCCCC(=O)O)[N+](=O)[O-]` [12-NO2-linoleic acid, (9Z,12E)-12-nitrooctadeca-9,12-dienoic acid], for which, in experiment [1], the “apparent affinity for PPARα (in words)” value is “very low”. In experiment [2], the “effect on induction by rosiglitazone (coincubation)” value is recorded as “less pronounced”, the “mean induction as a percentage of induction by 0.1 µM rosiglitazone (100%)” value stood at 76 ± 9% and the “agonist (full or partial)” value is reported as “partial”. In addition, the “agonist (full or partial)” value in experiment [2] (listed as 12-NO2) is on record as “nearly full agonist activity”. Moreover, in experiment [2] (listed as 12-NO2-LA), the “agonist (full or partial)” value is reported as “partial agonists”.

For `CCCCC/C(=C\C/C=C\CCCCCCCC(=O)O)[N+](=O)[O-]` [13-NO2-linoleic acid, (9Z,12E)-13-nitrooctadeca-9,12-dienoic acid], the IC50 in experiment [1] is over 15 µM. In addition, in experiment [3], the IC50 stood at 0.44 µM. Moreover, in experiment [2], the “EC50 fold higher than for 12-NO2-LA” value was “more than 10 fold”, the “maximum level of PPARγ activation as % of that of the 12-NO2 isomer” value is ~ 50%, the “effect on induction by rosiglitazone (coincubation)” value was “significantly reduced the level of induction by rosiglitazone” and the “mean induction as a percentage of induction by 0.1 µM rosiglitazone (100%)” value was 41 ± 5%. In addition, the “agonist (full or partial)” value in experiment [2] was “partial”. Also, the “agonist (full or partial)” value in experiment [2] (listed as 13-NO2-LA) is recorded as “partial agonists”.

For `CCCCC/C=C\C/C=C\CCCCCCCC(=O)O` [linoleic acid, (9Z,12Z)-octadeca-9,12-dienoic acid, reference compound], the IC50 in experiment [1] was over 15 µM; in experiment [3] it was 10.7 µM. Moreover, the “binding affinity for PPARγ (in words)” value in experiment [3] is “very low affinity”. Further, the “PPARγ activation (in words)” value is “negligible PPARγ activation” in experiment [2] and “does not support activation” in experiment [2] (listed as Linoleic acid).
